Tests used:
[1] = biological target: T1, LFA-1 binding to immobilized ICAM-1 (Homo sapiens, UniProt P05107+P20701); experiment: LFA-1/ICAM-1 Protein-Protein Assay (solid-phase ELISA); conditions: 5dICAM-Ig coated plates; membrane-bound LFA-1 from transfected 293 cells
T1 construct: made in house; host or cells: transfected 293 cells (LFA-1)
Procedure: LFA-1/ICAM-1 Protein-Protein Assay
LFA-1/ICAM-1 antagonist activity, defined as the ability to block LFA-1 binding to immobilized ICAM-1, was quantitated using a solid-phase ELISA. Typically, fusion protein consisting of the entire extracellular domain of human ICAM-1 and the Fc domain of human IgG (5dICAM-Ig) was coated onto 96-well microtiter plates (0.15 μg in 100 μL PBS) overnight at 4° C. The plates were then blocked with 150 μL of 1% BSA/1 mM MnCl2/0.14 M NaCl/20 mM HEPES, pH 7.2 for 1 h at 37° C. and washed 3 times (150 μL each) with Wash Buffer (50 mM Tris, pH 7.4/100 mM NaCl/1 mM MnCl2/0.05% Tween 20). Stock solutions (100 μM in 100% DMSO) of test compounds were diluted 50 fold with 150 μL of Binding Buffer (0.05% BSA/0.05% Tween 20/1 mM MnCl2/0.14 M NaCl/20 mM HEPES, pH 7.2) plus 10% DMSO. A series of 1:4 dilutions were performed to achieve a concentration range of 0.12 nM-2 μM. Fifty μL per well of each dilution was added to the ICAM-1 coated plates, followed by 50 μL per well of membrane-bound LFA-1 (280 ng/mL in Binding Buffer) derived from transfected 293 cells. The plates were shaken vigorously for 1 min (room temperature) and gently for 2 h (37° C.). After incubation, the plates were washed 3 times (150 μL each) with Wash Buffer. Mouse anti-human integrin β2 monoclonal antibody was added (100 μL/well, 1 μg/ml in Binding Buffer) and allowed to incubate for 1 h (37° C.) with gentle agitation. The plates were then washed 3 times with Wash Buffer. HRP-conjugated goat anti-mouse IgG (100 μL/well, 1:1500 dilution in Binding Buffer) was added to each well, followed by incubation for 1 h (37° C.) and concluded by three washes (150 μL each) with Wash Buffer. TMB solution (100 μL per well) was added for color development (10 min). The reaction was stopped by the addition of 100 μL of 1M H3PO4 to each well. The plates were then read at 450 nm.

[2] = tested on: T lymphocyte proliferation (murine spleen cells); experiment: Mixed Lymphocyte Reaction (MLR), one-way; format: cell-based, mice; conditions: Mus musculus, T-lymphocyte, light or radiation study, 72 h, C57B1/6 spleen cells with irradiated BALB/c spleen cells; tritiated thymidine incorporation, 3 days
Source text: Mixed Lymphocyte Reaction (MLR)
Admixture of murine spleen cells from two different inbred strains of mice induces proliferation of T lymphocytes. The magnitude of T cell proliferation depends on the extent of disparity in the major histocompatibility antigens between the two strains. Splenic T lymphocytes from both strains proliferate due to alloantigen recognition, a process for which the interaction of ICAM-1 on antigen-presenting cells with LFA-1 on lymphocytes is necessary. The ability of antagonists to inhibit T lymphocyte proliferation following recognition of alloantigens was assessed in a one-way MLR, where cells from one strain were irradiated to permit measurement of the proliferative response of cells from the other strain. Spleen cells were washed three times in tissue culture medium (TCM; see below). Fifty microliters of a spleen cell suspension (prepared at 10×10^6 cells/ml in TCM) obtained from C57B1/6 mice were added to an equal number of lethally-irradiated (2000 rads) spleen cells obtained from BALB/c mice in a 96-well U-bottom tissue culture plate (Costar, 3799). One hundred microliters of serial dilutions of antagonists or TCM were added to the spleen cell mixture. The total volume in each well was 200 μL. TCM was RPMI1640 containing 10% heat-inactivated fetal bovine serum, […] L-glutamine, 100 Units/ml each of penicillin and streptomycin and 5×10^−5 M 2-mercaptoethanol. Dilutions of antagonists were prepared in TCM. Plates were incubated in 5% CO2 for 3 days. On the third day, 0.5 μCi of tritiated thymidine (10 μCi/mL) was added to all the wells. Cells were harvested 6 h later on a 96-well plate harvester and the amount of tritiated thymidine incorporated was assessed in a liquid scintillation counter.

T1 sequence (P20701 26-1170): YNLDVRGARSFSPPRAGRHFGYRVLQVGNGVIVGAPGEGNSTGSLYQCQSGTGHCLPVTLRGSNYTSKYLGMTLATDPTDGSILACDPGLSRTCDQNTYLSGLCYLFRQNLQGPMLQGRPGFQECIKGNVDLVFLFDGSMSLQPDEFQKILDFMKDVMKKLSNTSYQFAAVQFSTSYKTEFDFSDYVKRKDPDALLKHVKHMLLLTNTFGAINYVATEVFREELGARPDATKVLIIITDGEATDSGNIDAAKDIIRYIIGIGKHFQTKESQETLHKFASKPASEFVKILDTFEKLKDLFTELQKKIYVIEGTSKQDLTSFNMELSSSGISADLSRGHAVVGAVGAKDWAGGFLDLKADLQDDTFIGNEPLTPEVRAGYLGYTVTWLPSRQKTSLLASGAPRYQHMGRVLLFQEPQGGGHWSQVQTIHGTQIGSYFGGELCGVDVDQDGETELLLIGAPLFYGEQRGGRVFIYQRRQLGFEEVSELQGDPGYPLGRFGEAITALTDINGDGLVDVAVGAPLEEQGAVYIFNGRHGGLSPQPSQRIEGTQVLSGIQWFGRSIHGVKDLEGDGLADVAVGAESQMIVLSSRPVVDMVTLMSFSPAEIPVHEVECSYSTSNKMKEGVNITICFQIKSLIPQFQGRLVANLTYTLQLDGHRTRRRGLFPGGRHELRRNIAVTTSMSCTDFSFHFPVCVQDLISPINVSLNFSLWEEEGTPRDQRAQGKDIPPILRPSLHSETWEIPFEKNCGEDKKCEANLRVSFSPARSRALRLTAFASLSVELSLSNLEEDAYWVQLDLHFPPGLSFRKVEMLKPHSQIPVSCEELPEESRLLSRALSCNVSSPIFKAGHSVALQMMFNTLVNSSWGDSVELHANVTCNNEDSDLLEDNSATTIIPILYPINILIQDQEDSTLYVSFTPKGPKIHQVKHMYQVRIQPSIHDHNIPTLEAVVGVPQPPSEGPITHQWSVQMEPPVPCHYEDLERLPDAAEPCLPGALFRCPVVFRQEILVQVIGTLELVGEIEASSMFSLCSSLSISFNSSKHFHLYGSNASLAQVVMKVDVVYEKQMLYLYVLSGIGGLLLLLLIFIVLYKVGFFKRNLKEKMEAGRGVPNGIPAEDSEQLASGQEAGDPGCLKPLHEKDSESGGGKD
T1 sequence (P05107 23-769): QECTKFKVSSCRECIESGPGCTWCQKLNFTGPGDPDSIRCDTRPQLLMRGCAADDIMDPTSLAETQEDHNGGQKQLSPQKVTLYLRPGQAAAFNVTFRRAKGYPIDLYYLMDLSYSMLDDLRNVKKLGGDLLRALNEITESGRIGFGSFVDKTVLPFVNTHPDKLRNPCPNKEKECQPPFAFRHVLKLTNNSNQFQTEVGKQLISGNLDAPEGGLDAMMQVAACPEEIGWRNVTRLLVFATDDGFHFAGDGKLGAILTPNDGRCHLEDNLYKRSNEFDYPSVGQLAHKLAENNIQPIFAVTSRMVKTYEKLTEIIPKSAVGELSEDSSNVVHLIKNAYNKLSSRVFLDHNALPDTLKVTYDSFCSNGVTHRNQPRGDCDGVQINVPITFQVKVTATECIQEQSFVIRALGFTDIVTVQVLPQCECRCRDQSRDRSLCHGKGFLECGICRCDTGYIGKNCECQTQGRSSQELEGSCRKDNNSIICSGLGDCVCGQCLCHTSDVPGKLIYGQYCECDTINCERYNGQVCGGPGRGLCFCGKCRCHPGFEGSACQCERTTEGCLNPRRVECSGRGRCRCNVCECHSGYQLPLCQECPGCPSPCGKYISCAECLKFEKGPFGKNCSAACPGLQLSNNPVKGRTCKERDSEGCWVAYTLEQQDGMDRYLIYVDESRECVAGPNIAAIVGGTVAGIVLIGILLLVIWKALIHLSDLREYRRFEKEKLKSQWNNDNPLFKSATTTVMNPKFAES

With `Cc1nc(C)c(/C=C(\NC(=O)c2ccc(C(=O)CCc3cccc(O)c3)cc2Cl)C(=O)O)s1` [Example 295] the IC50 [1] was 3 nM and the IC50 [2] was 10000 nM.
In the case of `CC(C)c1ncsc1/C=C(\NC(=O)c1ccc(C(=O)NCc2cccc(O)c2)cc1Cl)C(=O)O` [Example 300, (Z)-2-[[2-Chloro-4-[[(3-hydroxybenzyl)amino]carbonyl]benzoyl]amino]-3-[4-(1-methylethyl)thiazol-5-yl]propenoic Acid], the IC50 [1] is reported as 32.5 nM and the IC50 [2] is reported as 21500 nM.
With `Cc1nc(C(C)C)sc1/C=C(\NC(=O)c1ccc(C(=O)NCc2cccc(O)c2)cc1Cl)C(=O)O` [Example 301, 2-[[2-Chloro-4-[[(3-hydroxybenzyl)amino]carbonyl]benzoyl]amino]-3-[2-(1-methylethyl)-4-methylthiazol-5-yl]propenoic Acid] the IC50 [1] was 3.03 nM and the IC50 [2] was 4250 nM.
For `CCc1nc(C)c(/C=C(\NC(=O)c2ccc(C(=O)NCc3cccc(O)c3)cc2Cl)C(=O)O)s1` [Example 304, (Z)-2-[[2-Chloro-4-[[(3-hydroxybenzyl)amino]carbonyl]benzoyl]amino]-3-(2-ethyl-4-methylthiazole-5-yl)propenoic Acid], the IC50 [1] was 3 nM, the melting point was over 200 °C and the IC50 [2] was 2100 nM.
`Cn1ccc2ccc(/C=C(\NC(=O)c3ccc(C(=O)NCc4cccc(O)c4)cc3Cl)C(=O)O)cc21` [Example 305] gave an IC50 [1] of 4.13 nM and an IC50 [2] of 7250 nM.
`O=C(O)/C(=C/c1ccccc1)NC(=O)c1ccc(C(=O)NCc2cccc3[nH]ccc23)cc1Cl` [Example 306] gave an IC50 [1] of 10.4 nM and an IC50 [2] of 13800 nM.
In the case of `O=C(O)/C(=C/c1ccc2ccccc2c1)NC(=O)c1ccc(C(=O)NCc2cccc3[nH]ccc23)cc1Cl` [Example 307], the IC50 [1] is reported as 18.6 nM and the IC50 [2] is reported as 27000 nM.
With `O=C(O)/C(=C/c1ccccc1O)NC(=O)c1ccc(C(=O)NCc2cccc3[nH]ccc23)cc1Cl` [Example 309] the IC50 [1] was 18.7 nM and the IC50 [2] was 14500 nM.
Work on `Cc1cc(C(=O)NCc2cccc(O)c2)ccc1C(=O)N/C(=C\c1ccccc1)C(=O)O` [Example 311] yielded an IC50 [1] of 11.8 nM and an IC50 [2] of 10500 nM.
Compound `Cc1cc(C(=O)NCc2cccc(O)c2)ccc1C(=O)N/C(=C\c1cnc2ccccc2c1)C(=O)O` [Example 312] has an IC50 [1] of 4.7 nM and an IC50 [2] of 990 nM.
`O=C(O)/C(=C/c1ccc(Br)cc1)NC(=O)c1ccc(C(=O)NCc2cccc(O)c2)cc1Cl` [Example 314, (Z)-3-(4-Bromophenyl)-2-[[2-chloro-4-[[(3-hydroxybenzyl)amino]carbonyl]benzoyl]amino]propenoic Acid] gave an IC50 [1] of 3.05 nM and an IC50 [2] of 6100 nM.
With `O=C(O)/C(=C/c1cc2c(cc1Cl)OCO2)NC(=O)c1ccc(C(=O)NCc2cccc(O)c2)cc1Cl` [Example 315] the IC50 [1] was 1.89 nM and the IC50 [2] was 2500 nM.
With `Cc1cc(C(=O)NCc2cccc(O)c2)ccc1C(=O)N/C(=C\c1ccc2cc[nH]c2c1)C(=O)O` [Example 316, (Z)-2-[[4-[[(3-Hydroxybenzyl)amino]carbonyl]-2-methylbenzoyl]amino]-3-(1N-indol-6-yl)propenoic Acid] the IC50 [1] was 3 nM and the IC50 [2] was 1150 nM.
`Cc1nc(C)c(/C=C(\NC(=O)c2ccc(C(=O)NCc3cccc(N)c3)cc2Br)C(=O)O)s1` [Example 321] showed an IC50 [1] of 7.52 nM and an IC50 [2] of 11500 nM.
In the case of `Nc1cccc(CNC(=O)c2ccc(C(=O)N/C(=C\c3cnc4ccccc4c3)C(=O)O)c(Br)c2)c1` [Example 322], the IC50 [1] is reported as 1.74 nM and the IC50 [2] is reported as 4450 nM.
`NS(=O)(=O)c1ccc(/C=C(\NC(=O)c2ccc(C(=O)NCc3cccc(O)c3)cc2Cl)C(=O)O)cc1` [Example 323, (Z)-3-(4-Aminosulfonylphenyl)-2-[[2-chloro-4-[[(3-hydroxybenzyl)amino]carbonyl]benzoyl]amino]propenoic Acid] gave an IC50 [1] of 0.84 nM and an IC50 [2] of 230 nM.

Source: patent publication US6515124B2, “Dehydroamino acids” (Hoffman-La Roche Inc., priority 2000, dated 2003)
